Source: patent US11040027B2, “Protein kinase inhibitors for promoting liver regeneration or reducing or preventing hepatocyte death” (HEPAREGENIX GMBH, priority 2017, dated 2021)

How the values were obtained:
[1] = target: T1, MKK4 (Homo sapiens, UniProt P45985); test: KINOMEscan competition binding assay, MKK4; conditions: read-out: Potency MKK4 (derived from % of control values, PoC)
T1 sequence (P45985 84-399): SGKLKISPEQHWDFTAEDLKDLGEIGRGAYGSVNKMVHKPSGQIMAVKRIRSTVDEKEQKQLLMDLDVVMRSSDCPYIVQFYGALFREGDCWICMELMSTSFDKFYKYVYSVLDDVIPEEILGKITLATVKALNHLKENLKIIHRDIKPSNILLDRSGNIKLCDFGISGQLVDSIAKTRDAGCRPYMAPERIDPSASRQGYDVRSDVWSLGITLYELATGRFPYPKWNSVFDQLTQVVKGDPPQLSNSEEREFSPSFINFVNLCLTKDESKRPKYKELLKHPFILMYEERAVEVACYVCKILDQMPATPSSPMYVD
Procedure: (§4) For investigation of the affinity to MKK4, MKK7 and JNK1, the kinases were produced in HEK-293 cells and subsequently tagged with DNA for qPCR detection. […] The liganded beads were blocked with excess biotin and washed with blocking buffer (SEABLOCK™ (Pierce), 1% BSA, 0.05% TWEEN®20, 1 mM DTT) to remove unbound ligand and to reduce nonspecific binding. […] All reactions were performed in polystyrene 96-well plates in a final volume of 0.135 mL. […] The kinase concentration in the eluates was measured by qPCR.

[2] = target: T2, MKK7 (Homo sapiens, UniProt O14733); test: KINOMEscan competition binding assay, selectivity MKK7 versus MKK4; conditions: Test conc. 0.1 μM; ratio of percent of control; N/E* per footnote
T2 sequence (O14733 1-419): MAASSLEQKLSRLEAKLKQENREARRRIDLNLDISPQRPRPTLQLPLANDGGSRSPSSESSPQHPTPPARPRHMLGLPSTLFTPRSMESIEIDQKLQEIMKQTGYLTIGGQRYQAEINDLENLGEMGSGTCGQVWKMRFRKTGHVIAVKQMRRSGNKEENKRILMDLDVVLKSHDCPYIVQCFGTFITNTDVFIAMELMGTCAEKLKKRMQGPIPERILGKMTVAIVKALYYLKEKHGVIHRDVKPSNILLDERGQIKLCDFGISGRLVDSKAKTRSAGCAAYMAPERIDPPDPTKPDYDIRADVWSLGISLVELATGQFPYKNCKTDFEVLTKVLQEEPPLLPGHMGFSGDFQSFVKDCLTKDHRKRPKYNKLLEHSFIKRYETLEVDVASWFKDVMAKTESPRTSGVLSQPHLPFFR
Procedure: as §4

[3] = target: BRaf (Homo sapiens, UniProt P15056); test: KINOMEscan competition binding assay, selectivity BRaf versus MKK4; conditions: Test conc. 0.1 μM; ratio of percent of control; N/E* per footnote
Chain of BRaf (P15056 whole entry): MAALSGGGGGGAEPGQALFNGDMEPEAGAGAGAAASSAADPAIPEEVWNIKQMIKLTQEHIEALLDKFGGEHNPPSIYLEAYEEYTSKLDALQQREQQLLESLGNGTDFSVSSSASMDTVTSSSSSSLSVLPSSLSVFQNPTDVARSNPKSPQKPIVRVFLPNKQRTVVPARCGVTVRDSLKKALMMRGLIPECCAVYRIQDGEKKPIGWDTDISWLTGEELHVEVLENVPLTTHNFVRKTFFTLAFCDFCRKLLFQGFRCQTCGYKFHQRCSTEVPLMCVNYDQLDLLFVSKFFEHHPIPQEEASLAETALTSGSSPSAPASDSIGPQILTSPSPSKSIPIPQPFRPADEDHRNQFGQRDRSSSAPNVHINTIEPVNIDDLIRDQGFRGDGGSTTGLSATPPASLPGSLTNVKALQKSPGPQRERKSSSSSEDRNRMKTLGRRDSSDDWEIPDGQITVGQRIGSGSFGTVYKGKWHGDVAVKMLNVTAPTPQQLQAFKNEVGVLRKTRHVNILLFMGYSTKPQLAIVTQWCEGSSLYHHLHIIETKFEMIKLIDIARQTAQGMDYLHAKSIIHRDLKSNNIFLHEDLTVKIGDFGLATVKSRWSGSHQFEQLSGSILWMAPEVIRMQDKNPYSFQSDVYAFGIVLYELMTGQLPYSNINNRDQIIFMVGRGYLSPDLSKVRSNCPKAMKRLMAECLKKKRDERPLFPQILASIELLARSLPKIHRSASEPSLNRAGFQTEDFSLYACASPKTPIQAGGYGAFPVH
Procedure: The assay was performed by combining three components: DNA-tagged kinase; immobilized ligand; and a test compound. The ability of the test compound to compete with the immobilized ligand was measured via quantitative PCR of the DNA tag. The technology is described in detail in Fabian, M. A. et al. A small molecule-kinase interaction map for clinical kinase inhibitors. Nat. […] Nat.
The test compounds were provided as 10 mM stock solutions. The test solutions at indicated final concentrations were prepared at DiscoverX.

[4] = target: T3, MKK4 active (Homo sapiens, UniProt P45985); test: Radiometric protein kinase assay, MKK4 active; format: biochemical; conditions: substrate JNK1 KRKR, ATP 0.2 μM, read-out: MKK4 (potency derived from IC50-values)
T3 construct: purchased ProQinase 0948-0000-1
T3 sequence (P45985 1-399): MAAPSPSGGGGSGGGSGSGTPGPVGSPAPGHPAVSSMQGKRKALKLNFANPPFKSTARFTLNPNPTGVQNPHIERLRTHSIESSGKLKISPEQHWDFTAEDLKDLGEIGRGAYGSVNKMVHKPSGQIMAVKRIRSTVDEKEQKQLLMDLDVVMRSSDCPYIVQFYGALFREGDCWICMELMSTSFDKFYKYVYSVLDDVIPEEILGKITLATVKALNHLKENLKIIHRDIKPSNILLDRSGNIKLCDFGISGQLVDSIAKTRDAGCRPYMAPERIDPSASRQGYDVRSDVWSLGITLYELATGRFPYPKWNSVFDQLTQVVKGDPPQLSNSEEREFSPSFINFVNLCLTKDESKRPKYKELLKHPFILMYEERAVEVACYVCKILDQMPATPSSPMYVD
Procedure: (§1) A radiometric protein kinase assay was used for measuring the kinase activity of the respective protein kinases. All kinase assays were performed in 96-well polypropylene plates. After the reactions were stopped, the assay mixtures were transferred to 96-well MSFC filter-plates (Millipore). The reaction mix was passed through the filter membrane by aspiration, the membrane was washed 3 times with 150 mM H3PO4, once with ethanol, dried and liquid scintillation cocktail was added. Radioactivity was determined by counting of the samples in a Microbeta multiwell scintillation counter (Wallac).
(§2) b) Single Kinases • 20 μl standard assay buffer • 5 μl compound in 10% DMSO • 20 μl enzyme-substrate mix • 10 μl of substrate solution
(§3) The reaction cocktails were incubated at 30° C. for 30 minutes.

[5] = target: T4, MEKK2 (Homo sapiens, UniProt Q9Y2U5); test: Radiometric protein kinase assay, MEKK2; format: biochemical; conditions: substrate Casein, ATP 0.2 μM; read-out: MEKK2 (potency derived from IC50-values)
T4 construct: purchased ProQinase 0583-0000-1
T4 sequence (Q9Y2U5 1-619): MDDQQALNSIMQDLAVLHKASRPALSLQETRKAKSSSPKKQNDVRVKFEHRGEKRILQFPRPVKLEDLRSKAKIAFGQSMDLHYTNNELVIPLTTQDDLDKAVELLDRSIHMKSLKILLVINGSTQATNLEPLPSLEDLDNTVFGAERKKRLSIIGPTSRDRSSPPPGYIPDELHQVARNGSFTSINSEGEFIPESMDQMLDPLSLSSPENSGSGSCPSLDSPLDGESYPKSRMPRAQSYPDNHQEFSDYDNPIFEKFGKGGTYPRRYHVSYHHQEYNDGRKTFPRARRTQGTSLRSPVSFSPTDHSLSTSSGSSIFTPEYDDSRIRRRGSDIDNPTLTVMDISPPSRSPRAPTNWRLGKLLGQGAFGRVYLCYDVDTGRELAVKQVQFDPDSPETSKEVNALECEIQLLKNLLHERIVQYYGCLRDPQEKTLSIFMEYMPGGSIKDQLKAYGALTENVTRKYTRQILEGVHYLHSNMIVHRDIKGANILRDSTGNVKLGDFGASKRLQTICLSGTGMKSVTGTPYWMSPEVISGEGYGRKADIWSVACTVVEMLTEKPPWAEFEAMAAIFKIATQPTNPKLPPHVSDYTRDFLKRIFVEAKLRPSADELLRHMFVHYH
Procedure: as §1, §2, §3

[6] = target: JNK1 (Homo sapiens, UniProt P45983); test: KINOMEscan competition binding assay, selectivity JNK1 versus MKK4; conditions: ratio of percent of control
Chain of JNK1 (P45983 1-384 isoform P45983-2): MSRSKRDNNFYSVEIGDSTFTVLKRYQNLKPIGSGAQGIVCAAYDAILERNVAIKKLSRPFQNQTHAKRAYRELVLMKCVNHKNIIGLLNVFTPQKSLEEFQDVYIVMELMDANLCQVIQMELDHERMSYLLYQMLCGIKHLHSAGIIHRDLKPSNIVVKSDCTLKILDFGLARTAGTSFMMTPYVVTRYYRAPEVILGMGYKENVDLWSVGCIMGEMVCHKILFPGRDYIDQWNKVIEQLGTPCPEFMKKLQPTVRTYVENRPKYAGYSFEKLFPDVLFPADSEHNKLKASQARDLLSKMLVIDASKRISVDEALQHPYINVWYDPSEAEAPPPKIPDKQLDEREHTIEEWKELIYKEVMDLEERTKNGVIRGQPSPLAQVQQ
Procedure: as §4

[7] = Test conc 0.1 μM, N/E* = PoC for JNK1 = 100

Structure (SMILES)	remaining binding at 0.1 µM [1] [%]	Selectivity MKK7/MKK4 [2]	Selectivity BRaf/MKK4 [3]	IC50 [4] [µM]	IC50 [5] [µM]	Selectivity JNK1/MKK4 ([6]; Test conc 10 μM)	Selectivity JNK1/MKK4 [6, 7]	remaining binding at 1 µM [1] [%]
CCCS(=O)(=O)Nc1ccc(F)c(C(=O)c2c[nH]c3ncc(-c4ccc(C(C)C)cc4)cc23)c1F [Example 7, N-(2,4-Difluoro-3-(5-(4-isopropylphenyl)-1H-pyrrolo[2,3-b]pyridine-3-carbonyl)phenyl)propane-1-sulfonamide]	> 30	3.0	0.9	0.5 to 1	> 10	>100	–	–
CCCS(=O)(=O)Nc1ccc(F)c(C(=O)c2c[nH]c3ncc(-c4ccc5c(c4)OCO5)cc23)c1F [Example 10, N-(3-(5-(Benzo[d][1,3]dioxol-5-yl)-1H-pyrrolo[2,3-b]pyridine-3-carbonyl)-2,4-difluorophenyl)propane-1-sulfonamide]	< 10	270	4.2	> 10	> 10	>100	–	–
CCCS(=O)(=O)Nc1ccc(F)c(C(=O)c2c[nH]c3ncc(-c4cccc(N)c4)cc23)c1F [Example 19, N-(3-(5-(3-Aminophenyl)-1H-pyrrolo[2,3-b]pyridine-3-carbonyl)-2,4-difluorophenyl)propane-1-sulfonamide]	–	–	–	–	1 to 10	–	–	–
COCCS(=O)(=O)Nc1ccc(F)c(C(=O)c2c[nH]c3ncc(-c4ccc(Cl)cc4)cc23)c1F [Example 32, N-(3-(5-(4-Chlorophenyl)-1H-pyrrolo[2,3-b]pyridine-3-carbonyl)-2,4-difluorophenyl)-2-methoxyethane-1-sulfonamide]	–	–	–	–	> 10	–	–	–
CCCS(=O)(=O)Nc1ccc(F)c(C(=O)c2c[nH]c3ncc(-c4ccc(OC)cc4Cl)cc23)c1F [Example 39, N-(3-(5-(2-Chloro-4-methoxyphenyl)-1H-pyrrolo[2,3-b]pyridine-3-carbonyl)-2,4-difluorophenyl)propane-1-sulfonamide]	–	–	–	–	1 to 10	–	–	–
CCCS(=O)(=O)Nc1ccc(F)c(C(=O)c2c[nH]c3ncc(-c4cc5c(cc4Cl)OCO5)cc23)c1F [Example 43, N-(3-(5-(6-Chlorobenzo[d][1,3]dioxol-5-yl)-1H-pyrrolo[2,3-b]pyridine-3-carbonyl)-2,4-difluorophenyl)propane-1-sulfonamide]	–	9.1	7.7	< 0.5	1 to 10	–	N/E* (PoC for JNK1 = 100)	–
CCCS(=O)(=O)Nc1ccc(F)c(C(=O)c2c[nH]c3ncc(-c4ccc(Cl)cc4)cc23)c1Cl [Example 86, N-(2-chloro-3-(5-(4-chlorophenyl)-1H-pyrrolo[2,3-b]pyridine-3-carbonyl)-4-fluorophenyl)propane-1-sulfonamide]	–	–	–	1 to 10	> 10	–	–	–
CCCS(=O)(=O)Nc1ccc(F)c(C(=O)c2c[nH]c3ncc(-c4ccc(OC5CCCC5)cc4Cl)cc23)c1F [Example 99, N-(3-(5-(2-chloro-4-(cyclopentyl-oxy)phenyl)-1H-pyrrolo[2,3-b]pyridine-3-carbonyl)-2,4-difluorophenyl)propane-1-sulfonamide]	> 30	2.0	1.9	–	–	–	2.0	–
CCCS(=O)(=O)Nc1ccc(F)c(C(=O)c2c[nH]c3ncc(-c4ccc(OCC5CC5)cc4Cl)cc23)c1F [Example 100, N-(3-(5-(2-chloro-4-(cyclopropyl-methoxy)phenyl)-1H-pyrrolo[2,3-b]pyridine-3-carbonyl)-2,4-difluorophenyl)propane-1-sulfonamide]	> 30	N/E* (PoC for JNK1 = 100)	17	–	–	–	2.2	–
CCCS(=O)(=O)Nc1ccc(F)c(C(=O)c2c[nH]c3ncc(-c4ccccc4)cc23)c1F [Example 101, N-(2,4-difluoro-3-(5-phenyl-1H-pyrrolo[2,3-b]pyridine-3-carbonyl)phenyl)propane-1-sulfonamide]	< 10	N/E* (PoC for JNK1 = 100)	7.2	–	–	–	28	–
CCCS(=O)(=O)Nc1ccc(F)c(C(=O)c2c[nH]c3ncc(-c4ccc(OCOC)cc4Cl)cc23)c1F [Example 102, N-(3-(5-(2-chloro-4-(methoxymethoxy)phenyl)-1H-pyrrolo[2,3-b]pyridine-3-carbonyl)-2,4-difluorophenyl)propane-1-sulfonamide]	< 10	N/E* (PoC for JNK1 = 100)	17	–	–	–	N/E* (PoC for JNK1 = 100)	–
O=C(c1c(F)ccc(NS(=O)(=O)CCc2ccccc2)c1F)c1c[nH]c2ncc(-c3ccc(Cl)cc3)cc12 [Example 103, N-(3-(5-(4-chlorophenyl)-1H-pyrrolo[2,3-b]pyridine-3-carbonyl)-2,4-difluorophenyl)-2-phenylethane-1-sulfonamide]	–	–	–	–	< 0.5	–	–	–
CCCS(=O)(=O)Nc1ccc(F)c(C2(c3c[nH]c4ncc(-c5ccc(Cl)cc5)cc34)OCCO2)c1F [Example 104, N-(3-(2-(5-(4-chlorophenyl)-1H-pyrrolo[2,3-b]pyridin-3-yl)-1,3-dioxolan-2-yl)-2,4-difluorophenyl)propane-1-sulfonamide]	–	–	–	–	> 10	–	–	–
CCCS(=O)(=O)Nc1nc(C(=O)c2c[nH]c3ncc(-c4ccc(Cl)cc4)cc23)cs1 [Example 111, N-(4-(5-(4-chlorophenyl)-1H-pyrrolo[2,3-b]pyridine-3-carbonyl)thiazol-2-yl)propane-1-sulfonamide]	–	<1	N/E* (PoC for JNK1 = 100)	–	–	–	N/E* (PoC for JNK1 = 100)	> 30
CCCS(=N)(=O)Nc1ccc(F)c(C(=O)c2c[nH]c3ncc(-c4ccc(Cl)cc4)cc23)c1F (stereo not shown) [Example 112, N-(3-(5-(4-chlorophenyl)-1H-pyrrolo[2,3-b]pyridine-3-carbonyl)-2,4-difluorophenyl)propane-1-sulfonimidamide]	–	–	–	1 to 10	> 10	–	–	–
